Counter-ions that a name gives are not always drawn.
How the values were obtained:
[1] = tested on: neutrophile of guinea pig; experiment: Inhibition of active oxygen (O2^-) generation in FMLP-stimulated neutrophile; format: cell-based, female Hartley guinea pigs
Description: To female Hartley guinea pigs of five weeks old (purchased from Japan SLC), 20 ml of the 0.2% aqueous solution of glycogen (Type II; Oyster; Sigma) dissolved in saline which was previously sterilized with autoclave, was intraperitoneally administered. The guinea pigs were sacrificed by bleeding 16 hours after the administration, and 20 ml of the saline containing heparin at a concentration of 10 U/ml was intraperitoneally injected to recover the peritoneal exudate. Hereinafter all the operations were carried out under ice-water cooling condition except for incubation. The recovered exudate was centrifuged at 1,000 rpm for 10 minutes, the precipitate obtained was hemolyzed with purified water for 30 seconds, and returned into isotonicity with the Hanks' solution at double the concentration (not containing phenol red; Nissui Seiyaku), and further it was centrifuged at 1,000 rpm for 10 minutes. The precipitate obtained was suspended in the Hanks' solution and centrifuged and the operations were repeated once more to give the neutrophile.
The collected neutrophile of the guinea pigs was suspended in the Hanks' solution, the number of leukocyte in the suspension was determined by a cytometer (System K-2000; Toa Iyo Denshi Co.), and the suspension diluted with the Hanks' solution to 2×10^6 cells/ml was used in the determination as the cell suspension. After mixing 1 ml of the cell suspension and 10 μl of the purified keratan sulfate oligosaccharide (keratan sulfate tetrasaccharide (I), the keratan sulfate pentasaccharide (II), or the keratan sulfate disaccharide (III)) prepared in Example 1 described above, and the mixture was preincubated at 37° C. for an hour. […]
The supernatant obtained by the centrifugation was separated and the absorbance thereof was determined at 550 nm to estimate the quantity of reducing cytochrome c per 2×10^6 cells after the 10 minutes incubation. The quantity of reducing cytochrome c increases with the generation of active oxygen (O2^-). […]

[2] = tested on: papain-induced arthritis; experiment: Papain-induced unilateral arthritis model, intramuscular administration (volume of synovial fluid); format: in vivo, Japanese white rabbits (female); details: for quantity of synovial fluid (FIG. 5, result in words): 10 rabbits per group; for Volume of Synovial Fluid: 7 days, control 722, normal 433
Description: The anti-inflammatory effect of the keratan sulfate oligosaccharide with rabbits of the papain-induced arthritis model was examined using the volume of synovial fluid as an indication.
Seven days after the injection, the blood was drawn from the auricular artery, and plasma containing heparin was separated. After drawing the blood, the rabbits were anatomized and the both knee joint were separated. The articular cavity was washed with 2 ml of saline three times to recover the synovial fluid. The calcium concentrations in the plasma and the recovered synovial fluid were determined, and the volume of synovial fluid was calculated from the following formula.
Volume of Synovial Fluid (ul/articulation)=Amount of Calcium in Recovered
Synovial Fluid (μg/articulation)/Concentration of Calcium in Plasma
Into the articular cavity of left joint of Japanese white rabbits (female) of 3 kg weight, 150 μl of the saline solution of papain (1%) was injected, and the right joint was not treated to prepare the unilateral arthritis model. One day after injecting papain, 150 μl of the PBS solution of the purified keratan sulfate tetrasaccharide (I) (2%, 1%, and 0.5% solution; 1.0 mg/kg, 0.5 mg/kg, and 0.25 mg/kg, respectively) which was prepared in Example 1 was injected into the hip muscle of the left side (hereinafter referred to as "the keratan sulfate tetrasaccharide (I) administered group"). As the control, 150 μl of PBS was injected to the arthritis model instead of the PBS solution of the keratan sulfate tetrasaccharide (I) and hereinafter these rabbits are referred to as "the control group". And the normal rabbits not subjected to the papain injection (hereinafter referred to as "the normal group") were also examined in the same manner hereinafter. Seven days after the injection, the volume of synovial fluid was calculated in the same manner as in (1-1).
The examination was performed in the same manner as in (1-3) except for using 150 μl of the PBS solution of the purified keratan sulfate tetrasaccharide (I), the keratan sulfate pentasaccharide (II), and the keratan sulfate disaccharide (III) (1% solution; 0.5 mg/kg) which were prepared in Example 1. In the figure, *, **, and *** represent that they have the significant difference with p<0.05, p<0.01, and p<0.001, respectively. And in each group, 10 rabbits were used for the examination.

[3] = 0.5 mg/kg intramuscular, unilateral model

Compound	inhibitory function for generation of active oxygen (O2^-) (FIG. 10) [1]	quantity of synovial fluid (FIG. 5, result in words) [2, 3]	inhibition of generation of active oxygen (O2^-) (FIG. 10) ([1]; 0.01, 0.1 and 1.0 mg/ml)	Volume of Synovial Fluid ([2]; 0.25 mg/kg intramuscular, n = 9, SD 70.6, p < 0.05) [µL]	Volume of Synovial Fluid ([2]; 0.5 mg/kg intramuscular, n = 10, SD 68.9, p < 0.01) [µL]	Volume of Synovial Fluid ([2]; 1.0 mg/kg intramuscular, n = 9, SD 53.1, p < 0.01) [µL]	volume of synovial fluid (result in words) ([2]; 0.25, 0.5, 1.0 mg/kg intramuscular, unilateral model)
CC(=O)N[C@H]1C(O)O[C@H](COS(=O)(=O)O)[C@@H](O[C@@H]2O[C@H](COS(=O)(=O)O)[C@H](O)[C@H](O)[C@H]2O)[C@@H]1O (stereo partly drawn) [keratan sulfate disaccharide (III), Gal(6S)β1-4GlcNAc(6S)]	slightly observed	significantly less than that in the control group	–	–	–	–	–
CC(=O)N[C@H]1[C@H](O[C@H]2[C@@H](O)[C@@H](COS(=O)(=O)O)O[C@@H](O[C@H]3[C@H](O)[C@@H](NC(C)=O)C(O)O[C@@H]3COS(=O)(=O)O)[C@@H]2O)O[C@H](COS(=O)(=O)O)[C@@H](O[C@@H]2O[C@H](COS(=O)(=O)O)[C@H](O)[C@H](O)[C@H]2O)[C@@H]1O (stereo partly drawn) [keratan sulfate tetrasaccharide (I), Gal(6S)β1-4GlcNAc(6S)β1-3Gal(6S)β1-4GlcNAc(6S)]	–	significantly less than that in the control group	remarkably inhibits the generation of active oxygen (O2^-) depending upon the concentration	619	597	528	significantly less than that in the control group

— patent publication US5939403A, “Keratan sulfate oligosaccharide fraction and pharmaceutical containing the same” (Seikagaku Corporation, priority 1994, dated 1999)
